Laboratory results as given in patent US12264158B2, “Protein kinase MKK4 inhibitors for promoting liver regeneration or reducing or preventing hepatocyte death” (HEPAREGENIX GMBH, priority 2018, dated 2025).

How the values were obtained:
MKK4 active = target: T1, MKK4 active (Homo sapiens, UniProt P45985); assay: Radiometric protein kinase assay, MKK4 active; type: biochemical; conditions: substrate JNK1 KRKR, ATP 0.2 μM, read-out: MKK4, potency derived from IC50-values
T1 construct: purchased ProQinase #0948-0000-1
T1 sequence (P45985 1-399): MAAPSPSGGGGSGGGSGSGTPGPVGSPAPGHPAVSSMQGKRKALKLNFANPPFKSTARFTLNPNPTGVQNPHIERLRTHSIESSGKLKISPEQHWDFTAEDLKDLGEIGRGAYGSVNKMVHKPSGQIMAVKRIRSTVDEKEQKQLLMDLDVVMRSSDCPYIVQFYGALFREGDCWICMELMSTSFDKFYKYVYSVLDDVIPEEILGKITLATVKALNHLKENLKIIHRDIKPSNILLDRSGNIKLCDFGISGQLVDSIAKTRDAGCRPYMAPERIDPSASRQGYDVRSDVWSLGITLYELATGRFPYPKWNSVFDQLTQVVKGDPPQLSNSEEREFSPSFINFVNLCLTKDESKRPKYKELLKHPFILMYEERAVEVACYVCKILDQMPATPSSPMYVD
Description: (§1) A radiometric protein kinase assay was used for measuring the kinase activity of the respective protein kinases. All kinase assays were performed in 96-well polypropylene plates. After the reactions were stopped, the assay mixtures were transferred to 96-well MSFC filter-plates (Millipore). The reaction mix was passed through the filter membrane by aspiration, the membrane was washed 3 times with 150 mM H3PO4, once with ethanol, dried and liquid scintillation cocktail was added. Radioactivity was determined by counting of the samples in a Microbeta multiwell scintillation counter (Wallac).

MKK7 = target: T2, MKK7 (Homo sapiens, UniProt O14733); assay: KINOMEscan competition binding assay, selectivity against off-target MKK7; conditions: concentration of 100 nM
T2 construct: M1/R419; host or cells: HEK-293
T2 sequence (O14733 1-419): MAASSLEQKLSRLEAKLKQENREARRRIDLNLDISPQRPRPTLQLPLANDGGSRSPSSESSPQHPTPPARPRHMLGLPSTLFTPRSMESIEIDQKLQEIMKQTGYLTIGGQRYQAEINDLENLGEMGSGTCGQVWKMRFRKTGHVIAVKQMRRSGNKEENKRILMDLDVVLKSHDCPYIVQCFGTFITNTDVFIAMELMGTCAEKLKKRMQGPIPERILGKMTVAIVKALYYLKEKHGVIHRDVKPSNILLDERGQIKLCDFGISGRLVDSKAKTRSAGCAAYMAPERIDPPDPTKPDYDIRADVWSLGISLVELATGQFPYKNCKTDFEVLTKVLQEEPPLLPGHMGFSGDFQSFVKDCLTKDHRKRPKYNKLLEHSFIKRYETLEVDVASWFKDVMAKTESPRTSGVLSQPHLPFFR
Method in brief: (§2)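 DNA-tagged kinases expressed in HEK-293 cells compete between test compound and immobilized ligand on blocked beads. Bound kinase is eluted and quantified by qPCR of the DNA tag. Compounds were tested at the indicated final concentrations, prepared from 10 mM stocks.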

BRaf = BRaf (Homo sapiens, UniProt P15056); assay: KINOMEscan competition binding assay, selectivity against off-target BRaf; conditions: concentration of 100 nM
Sequence of BRaf (P15056 whole entry): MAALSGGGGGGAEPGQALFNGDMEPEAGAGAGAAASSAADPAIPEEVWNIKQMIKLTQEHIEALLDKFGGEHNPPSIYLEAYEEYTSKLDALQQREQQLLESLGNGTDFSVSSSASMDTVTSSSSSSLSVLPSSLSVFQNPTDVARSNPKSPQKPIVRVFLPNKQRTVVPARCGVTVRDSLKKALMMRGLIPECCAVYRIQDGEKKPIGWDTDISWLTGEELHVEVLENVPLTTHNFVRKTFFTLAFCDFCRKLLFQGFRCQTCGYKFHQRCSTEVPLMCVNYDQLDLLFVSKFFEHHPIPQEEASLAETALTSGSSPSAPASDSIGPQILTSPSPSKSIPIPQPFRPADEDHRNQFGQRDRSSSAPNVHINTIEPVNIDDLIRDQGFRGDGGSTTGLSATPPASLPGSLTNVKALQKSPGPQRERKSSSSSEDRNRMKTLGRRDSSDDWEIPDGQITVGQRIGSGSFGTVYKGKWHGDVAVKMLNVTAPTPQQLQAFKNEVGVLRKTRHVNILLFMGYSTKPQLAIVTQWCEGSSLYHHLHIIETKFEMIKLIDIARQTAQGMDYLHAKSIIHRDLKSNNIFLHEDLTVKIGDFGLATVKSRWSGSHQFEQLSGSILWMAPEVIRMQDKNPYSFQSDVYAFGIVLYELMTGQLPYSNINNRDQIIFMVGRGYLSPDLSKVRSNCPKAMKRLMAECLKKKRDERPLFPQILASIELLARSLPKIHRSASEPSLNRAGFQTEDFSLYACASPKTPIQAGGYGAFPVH
Method in brief: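 Competition binding: test compound competes with an immobilized ligand for DNA-tagged BRaf, and kinase captured on the ligand is quantified by qPCR of the DNA tag. Compounds from 10 mM stocks were tested at the indicated final concentrations.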

JNK1 = target: T3, JNK1 (Homo sapiens, UniProt P45983); assay: KINOMEscan competition binding assay, selectivity against off-target JNK1; conditions: concentration of 100 nM
T3 construct: M1/Q384; host or cells: HEK-293
T3 sequence (P45983 1-384 isoform P45983-2): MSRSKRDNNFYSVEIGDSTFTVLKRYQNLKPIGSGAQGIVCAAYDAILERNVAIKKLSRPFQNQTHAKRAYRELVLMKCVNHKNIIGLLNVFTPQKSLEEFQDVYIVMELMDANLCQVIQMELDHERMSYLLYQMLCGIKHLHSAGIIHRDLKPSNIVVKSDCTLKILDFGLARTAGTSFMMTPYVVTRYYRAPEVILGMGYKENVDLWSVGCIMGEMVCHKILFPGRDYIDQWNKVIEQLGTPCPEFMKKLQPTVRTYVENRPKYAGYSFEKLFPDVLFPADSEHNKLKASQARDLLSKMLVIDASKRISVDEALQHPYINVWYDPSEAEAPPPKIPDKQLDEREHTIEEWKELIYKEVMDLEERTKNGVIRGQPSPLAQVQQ
Method in brief: as §2

MKK4-MEKK2 mix = target: T4, MKK4-MEKK2 mix (Homo sapiens, UniProt P45985); assay: Radiometric protein kinase assay, MEKK2 dependent MKK4 activation (cascade); type: biochemical; conditions: substrate JNK1 KRKR, ATP 0.2 μM, read-out: Cascade, potency derived from IC50-values
T4 construct: MEKK2, recombinant, active: ProQinase product #0583-0000-1
T4 sequence (P45985 2-399): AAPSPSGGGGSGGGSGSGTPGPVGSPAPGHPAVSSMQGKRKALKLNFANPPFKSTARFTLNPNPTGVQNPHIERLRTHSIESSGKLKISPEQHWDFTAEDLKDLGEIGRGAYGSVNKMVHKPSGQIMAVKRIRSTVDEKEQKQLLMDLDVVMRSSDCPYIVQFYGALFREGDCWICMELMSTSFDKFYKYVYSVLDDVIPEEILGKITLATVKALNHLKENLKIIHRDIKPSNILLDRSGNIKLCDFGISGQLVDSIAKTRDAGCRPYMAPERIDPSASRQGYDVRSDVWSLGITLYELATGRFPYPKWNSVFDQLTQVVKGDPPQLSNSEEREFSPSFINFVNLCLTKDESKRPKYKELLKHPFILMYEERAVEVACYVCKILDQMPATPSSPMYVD
Description: The activation step is done in 50 mM HEPES pH 7.5, 50 mM NaCl, 3.8 mM MgCl2, 2.5 mM DTT, 10% (v/v) glycerol. Final DMSO concentration is 1%. The activation mixture is pipetted in the following order • 2.5 μl compound in 4% DMSO • 2.5 μl ATP/MgCl2 mix • 5 μl premixed kinase solution MKK4:MEKK2 10:1 (w/w)
Protein concentrations in the activation mix are 1 μM MKK4 and 50 nM MEKK2.
as §1

MEKK2 = target: T5, MEKK2 (Homo sapiens, UniProt Q9Y2U5); assay: Radiometric protein kinase assay, MEKK2; type: biochemical; conditions: substrate Casein, ATP 0.2 μM; read-out: MEKK2, potency derived from IC50-values
T5 construct: purchased ProQinase #0583-0000-1
T5 sequence (Q9Y2U5 1-619): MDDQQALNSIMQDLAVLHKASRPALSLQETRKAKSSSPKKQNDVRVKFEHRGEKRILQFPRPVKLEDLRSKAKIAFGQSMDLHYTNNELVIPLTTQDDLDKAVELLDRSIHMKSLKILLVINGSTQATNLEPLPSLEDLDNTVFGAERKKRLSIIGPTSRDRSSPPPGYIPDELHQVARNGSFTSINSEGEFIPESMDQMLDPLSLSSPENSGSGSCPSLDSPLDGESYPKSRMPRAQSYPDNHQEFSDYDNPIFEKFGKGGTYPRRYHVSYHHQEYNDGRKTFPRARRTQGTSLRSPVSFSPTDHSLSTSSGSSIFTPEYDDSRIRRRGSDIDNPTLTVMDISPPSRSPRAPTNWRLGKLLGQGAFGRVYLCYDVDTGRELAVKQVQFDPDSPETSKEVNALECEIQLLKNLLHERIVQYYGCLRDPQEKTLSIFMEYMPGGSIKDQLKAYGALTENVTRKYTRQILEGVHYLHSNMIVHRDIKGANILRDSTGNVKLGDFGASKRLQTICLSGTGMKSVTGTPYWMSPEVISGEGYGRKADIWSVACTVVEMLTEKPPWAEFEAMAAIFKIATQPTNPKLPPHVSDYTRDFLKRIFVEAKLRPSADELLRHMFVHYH
Method in brief: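 Kinase activity measured radiometrically: stopped reactions were captured on filter plates, washed with 150 mM H3PO4 and ethanol, and incorporated radioactivity counted by liquid scintillation.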

MKK4 = target: T6, MKK4 (Homo sapiens, UniProt P45985); assay: KINOMEscan competition binding assay, MKK4 potency; conditions: concentration of 100 nM
T6 construct: S84/D399; host or cells: HEK-293
T6 sequence (P45985 84-399): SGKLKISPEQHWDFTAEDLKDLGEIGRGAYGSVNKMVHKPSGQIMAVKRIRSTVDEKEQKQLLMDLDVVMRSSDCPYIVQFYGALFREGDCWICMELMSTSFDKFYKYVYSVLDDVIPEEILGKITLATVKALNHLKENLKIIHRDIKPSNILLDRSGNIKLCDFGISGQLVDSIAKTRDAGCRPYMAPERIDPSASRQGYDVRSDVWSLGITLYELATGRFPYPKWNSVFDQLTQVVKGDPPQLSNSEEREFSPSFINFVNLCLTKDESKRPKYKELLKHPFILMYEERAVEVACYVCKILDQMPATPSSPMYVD
Method in brief: as §2

Row | SMILES | IC50 (MKK4 active) | Selectivity vs. MKK7, ratio PoC(MKK7)/PoC(MKK4) (MKK7) | Selectivity vs. BRaf, ratio PoC(BRaf)/PoC(MKK4) (BRaf) | Selectivity vs. JNK1, ratio PoC(JNK1)/PoC(MKK4) (JNK1) | IC50 (MKK4-MEKK2 mix) | IC50 (MEKK2) | MKK4, residual percent of control binding (PoC) (MKK4)
1 | CCCS(=O)(=O)Nc1ccc(F)c(C(=O)c2n[nH]c3ncc(-c4ccccc4Cl)cc23)c1F [Example 9, N-(3-(5-(2-chlorophenyl)-1H-pyrazolo[3,4-b]pyridine-3-carbonyl)-2,4-difluorophenyl)-propane-1-sulfonamide] | 0.5 to 1 µM | ++ (30 > PoC(MKK7)/PoC(MKK4) ≥ 10) | + (10 > PoC(BRaf)/PoC(MKK4) ≥ 3) | ++ (30 > PoC(JNK1)/PoC(MKK4) ≥ 10) | 1 to 10 µM | 1 to 10 µM | ++ (1 ≤ PoC < 10)
2 | CCCS(=O)(=O)Nc1ccc(F)c(C(=O)c2n[nH]c3ncc(-c4cccc(N)c4)cc23)c1F [Example 27, N-(3-(5-(3-aminophenyl)-1H-pyrazolo[3,4-b]pyridine-3-carbonyl)-2,4-difluorophenyl)-propane-1-sulfonamide] | < 0.5 µM | +++ (PoC(MKK7)/PoC(MKK4) ≥ 30) | O (PoC(BRaf)/PoC(MKK4) < 3) | +++ (PoC(JNK1)/PoC(MKK4) ≥ 30) | 0.5 to 1 µM | 1 to 10 µM | ++ (1 ≤ PoC < 10)
3 | CCCS(=O)(=O)Nc1ccc(F)c(C(=O)c2n[nH]c3ncc(-c4ccccc4O)cc23)c1F [Example 21, N-(2,4-difluoro-3-(5-(2-hydroxyphenyl)-1H-pyrazo-lo[3,4-b]pyridine-3-carbonyl)-phenyl)propane-1-sulfon-amide] | 0.5 to 1 µM | ++ (30 > PoC(MKK7)/PoC(MKK4) ≥ 10) | + (10 > PoC(BRaf)/PoC(MKK4) ≥ 3) | + (10 > PoC(JNK1)/PoC(MKK4) ≥ 3) | 1 to 10 µM | 1 to 10 µM | ++ (1 ≤ PoC < 10)
4 | CCCS(=O)(=O)Nc1ccc(F)c(C(=O)c2n[nH]c3ncc(-c4cccc(OC)c4)cc23)c1F [Example 17, N-(2,4-difluoro-3-(5-(3-methoxyphenyl)-1H-pyrazo-lo[3,4-b]pyridine-3-carbonyl)-phenyl)propane-1-sulfon-amide] | 1 to 10 µM | ++ (30 > PoC(MKK7)/PoC(MKK4) ≥ 10) | + (10 > PoC(BRaf)/PoC(MKK4) ≥ 3) | ++ (30 > PoC(JNK1)/PoC(MKK4) ≥ 10) | 1 to 10 µM | > 10 µM | ++ (1 ≤ PoC < 10)
5 | CCCS(=O)(=O)Nc1ccc(F)c(C(=O)c2n[nH]c3ncc(-c4ccc([N+](=O)[O-])cc4)cc23)c1F [Example 23, N-(2,4-difluoro-3-(5-(4-nitrophenyl)-1H-pyrazolo-[3,4-b]pyridine-3-carbonyl)-phenyl)propane-1-sulfon-amide] | > 10 µM | ++ (30 > PoC(MKK7)/PoC(MKK4) ≥ 10) | + (10 > PoC(BRaf)/PoC(MKK4) ≥ 3) | ++ (30 > PoC(JNK1)/PoC(MKK4) ≥ 10) | > 10 µM | > 10 µM | ++ (1 ≤ PoC < 10)
6 | CCCS(=O)(=O)Nc1ccc(F)c(C(=O)c2n[nH]c3ncc(-c4ccccc4OC)cc23)c1F [Example 14, N-(2,4-difluoro-3-(5-(2-methoxyphenyl)-1H-pyrazo-lo[3,4-b]pyridine-3-carbonyl)-phenyl)propane-1-sulfon-amide] | 0.5 to 1 µM | +++ (PoC(MKK7)/PoC(MKK4) ≥ 30) | +++ (PoC(BRaf)/PoC(MKK4) ≥ 30) | ++ (30 > PoC(JNK1)/PoC(MKK4) ≥ 10) | 1 to 10 µM | > 10 µM | ++ (1 ≤ PoC < 10)
7 | CCCS(=O)(=O)Nc1ccc(F)c(C(=O)c2n[nH]c3ncc(-c4ccc(C(=O)O)cc4)cc23)c1F [Example 51d, 4-(3-(2,6-difluoro-3-(propylsulfonamido)benzoyl)-1H-pyrazolo[3,4-b]pyridin-5-yl)benzoic acid] | < 0.5 µM | +++ (PoC(MKK7)/PoC(MKK4) ≥ 30) | ++ (30 > PoC(BRaf)/PoC(MKK4) ≥ 10) | +++ (PoC(JNK1)/PoC(MKK4) ≥ 30) | < 0.5 µM | 1 to 10 µM | +++ (PoC < 1)
